Measurements as given in PubChem BioAssay (NCI).
Values joined by “and” are separate entries in the source; they are usually repeats but may differ in a detail not shown here. Equal values may be shown once.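 Results reflect a 48-hour exposure of cells in 96-well plates to compound at five concentrations. GI50: concentration for 50% inhibition of growth. TGI marks complete inhibition of growth.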

Columns and labels:
Experiment in all cases: NCI tumour cell line growth inhibition, 48 h
[1] = system: OVCAR-5 ovarian
[2] = system: NCI-H23 lung
[3] = system: SW-620 colon
[4] = system: NCI-H522 lung
[5] = system: CCRF-CEM leukemia
[6] = system: SNB-78 CNS
[7] = system: T-47D breast
[8] = system: A498 renal
[9] = system: DMS 114 small cell lung
[10] = system: M19-MEL melanoma
[11] = system: HOP-62 NSCLC
[12] = system: NCI-H460 lung
[13] = system: OVCAR-3 ovarian
[14] = system: HS 578T breast
[15] = system: P388/ADR leukemia
[16] = system: SN12K1 renal
[17] = system: P388 leukemia

SMILES: CCCCCCCCCCCCCCCCCCOP(=O)([O-])OC1CC[N+](C)(C)CC1
- GI50 [1]: 2.25 µM
- TGI [1]: > 10 µM and 8.82 µM
- GI50 [2]: > 10 µM
- TGI [2]: > 10 µM and 28.5 µM
- TGI [3]: > 10 µM and 22.4 µM
- GI50 [4]: 1.89 µM
- TGI [4]: 5.64 µM and 12.2 µM
- GI50 [5]: 2.73 µM
- TGI [5]: 7.55 µM and 10.5 µM
- TGI [6]: 46.2 µM
- GI50 [7]: 5.08 µM
- TGI [7]: > 10 µM and 36.9 µM
- GI50 [8]: 2 µM
- TGI [8]: 7.6 µM and 14.8 µM
- TGI [9]: 26.5 µM
- TGI [10]: 14.8 µM
- GI50 [11]: 3.2 µM
- TGI [11]: > 10 µM and 20.7 µM
- GI50 [12]: 2.85 µM
- TGI [12]: > 10 µM and 7.65 µM
- GI50 [13]: > 10 µM
- TGI [13]: > 10 µM and 23 µM
- GI50 [14]: > 10 µM
- TGI [14]: > 10 µM and 27.5 µM

SMILES: COc1cccc2c1C(CO)N1C(C#N)C3CC(C(=O)O)C(C1C2)N3C (stereo unspecified)
- TGI [15]: 1.09 µM
- GI50 [1]: 0.183 µM
- GI50 [2]: 0.222 µM
- TGI [2]: 4.42 µM and 0.558 µM
- GI50 [3]: 0.467 µM
- TGI [16]: > 100 µM
- GI50 [4]: 0.238 µM
- TGI [4]: 0.874 µM and 0.389 µM
- GI50 [5]: 0.0877 µM
- TGI [5]: 8.55 µM and > 17 µM
- GI50 [6]: 0.334 µM
- TGI [6]: 7.97 µM and 12 µM
- GI50 [7]: 0.135 µM
- TGI [17]: 6.42 µM
- GI50 [8]: 0.304 µM
- GI50 [9]: 0.159 µM
- GI50 [10]: 0.256 µM
- TGI [11]: 8.15 µM and 3.73 µM
- GI50 [12]: 1.24 µM
- GI50 [13]: 0.305 µM
- GI50 [14]: 0.538 µM
- TGI [14]: 3.08 µM
